For 25 compounds, Activity results are on record in ChEMBL document CHEMBL4339245, “Grayanane Diterpenoids from the Leaves of Rhododendron auriculatum and Their Analgesic Activities” (2019).

Active and inactive are the calls of the source. The rule behind the calls is not given here.

The test system of test [1] is Mus musculus. The test is described as follows: Analgesic activity in Kunming mouse model of acetic-acid-induced writhing assessed as inhibition of writhing numbers at 1 mg/kg measured for 30 mins relative to control. In kind it is functional, organism-based. In general terms: In writhing tests, fewer writhes than in controls are read as antinociception.
Test [2] relates to Mus musculus. Put plainly: Analgesic activity in Kunming mouse model of acetic-acid-induced writhing assessed as inhibition of writhing numbers at 5 mg/kg measured for 30 mins relative to control. In kind it is functional. On the set-up: scale not given: the % may be the effect or the level left.
Test [3] has as its system Mus musculus. The test is described as follows: Analgesic activity in Kunming mouse model of acetic-acid-induced writhing assessed as inhibition of writhing numbers at 0.04 mg/kg measured for 30 mins relative to control. In kind it is functional, organism-based.
Test [4] deals with Mus musculus. The test is described as follows: Analgesic activity in Kunming mouse model of acetic-acid-induced writhing assessed as inhibition of writhing numbers at 0.2 mg/kg measured for 30 mins relative to control. In kind it is functional, organism-based.
Test [5] has as its system Mus musculus. The test is described as follows: Analgesic activity in Kunming mouse model of acetic-acid-induced writhing assessed as inhibition of writhing numbers at 0.04 to 0.2 mg/kg measured for 30 mins relative to control. In kind it is functional, organism-based.

For the compound `C=C1[C@@H]2CC[C@H]3C(C)=C[C@]2(C[C@@H](O)[C@@]2(O)[C@H]1C[C@H](O)C2(C)C)[C@@H]3OC(C)=O`, in the test with Mus musculus [1], the outcome was Active.
Regarding `C=C1[C@H]2C[C@@H](O)C(C)(C)[C@]2(O)CC[C@@]23C[C@@H](CC[C@@H]12)[C@](C)(O)C3`, the Activity in the test on Mus musculus [2] turned out to be 64.1%.
Still for that read-out and setting: for `C=C1[C@@H]2CC[C@@H]3C[C@@]2(C[C@@H](O)[C@@]2(O)[C@H]1C[C@H](O)C2(C)C)C[C@]3(O)CO` the value was 53.7%.
In the case of `C=C1C2=C(C=C[C@@]34C[C@@H](CC[C@@H]13)[C@](C)(O)C4)C(C)(C)[C@@H](O)C2`, the result in the test with Mus musculus [1] was Active.
Consider `C=C1[C@H]2C[C@H](O)C(C)(C)[C@@]2(O)[C@H](O)C[C@@]23C[C@@H](CC[C@@H]12)[C@](C)(O)C3`, for which the outcome with Mus musculus [2] was Active.
Still for that read-out and setting: next, `CC1=C2CC[C@]3(O)C[C@@]2(C[C@@H](O)[C@@]2(O)[C@H]1[C@@H](O)[C@H](O)C2(C)C)C[C@@]3(C)O`: “Active”; `CO[C@H]1O[C@]23[C@H](O)C[C@@]45C[C@@](O)(CC[C@H]4[C@H]1[C@@H]2C[C@H](O)C3(C)C)[C@](C)(O)C5`: “Active”; `C=C1[C@@H]2CC[C@]3(O)C[C@@]2(C[C@@H](O)[C@@]2(O)[C@@H]1[C@H](O)[C@H](O)C2(C)C)C[C@@]3(C)O`: “Active”.
Still for that read-out and setting: next, `C=C1[C@@H]2CC[C@@H]3C[C@@]2(CC[C@@]2(O)[C@H]1C[C@H](O)C2(C)C)C[C@]3(O)CO`: “Active”.
As for `C=C1[C@H]2C[C@H](O)C(C)(C)[C@@]2(O)[C@H](O)C[C@@]23C[C@@](O)(CC[C@@H]12)[C@](C)(O)C3`, the outcome with Mus musculus [2] was Active.
Still for that read-out and setting: next, `C=C1[C@@H]2CC[C@@H]3[C@@H](O)[C@@]2(C[C@@H](O)[C@@]2(O)[C@H]1C[C@H](O)C2(C)C)C[C@@]3(C)O`: “Active”.
Take `CN1CC[C@]23c4c5ccc(O)c4O[C@H]2[C@@H](O)C=C[C@H]3[C@H]1C5`: in the test with Mus musculus [3], the result was Active.
Regarding `C=C1[C@@H]2CC[C@]3(O)C[C@@]2(C[C@@H](O)[C@@]2(O)[C@H]1C[C@H](O)C2(C)C)C[C@@]3(C)O`, in the test on Mus musculus [2], the result was Active.
On the same count and under the same terms, next, `CC1=C2C[C@H](O)C(C)(C)[C@@H]2C(=O)C[C@@]23C[C@@H](CC=C12)[C@](C)(O)C3`: “Active”; `C=C1[C@H]2C[C@H](O)C(C)(C)[C@]2(O)CC[C@@]23C[C@@H](CC[C@@H]12)[C@](C)(O)C3`: “Active”; `CC1=C2CC[C@]3(O)C[C@@]2(C[C@@H](O)[C@@]2(O)[C@H]1C[C@H](O)C2(C)C)C[C@@]3(C)O`: 52.3%.
`C=C1[C@H]2C[C@H](O)C(C)(C)[C@@]2(O)[C@H](O)C[C@]23C=C(C)[C@H](CC[C@@H]12)C3`: the outcome with Mus musculus [2] was Active.
Still for that read-out and setting: for `C=C1[C@@H]2CC[C@@H]3C[C@@]2(CC[C@@]2(O)[C@H]1C[C@H](O)C2(C)C)C[C@@]3(C)O` the value was “Active”; for `C=C1[C@@H]2[C@@H](O)[C@H](O)C(C)(C)[C@@]2(O)[C@H](O)C[C@@]23C[C@@](O)(CC[C@@H]12)[C@](C)(O)C3`, “Active”.
On to `C=C1[C@@H]2CC[C@@H]3[C@@H](OC(C)=O)[C@@]2(C[C@@H](O)[C@@]2(O)[C@H]1C[C@H](O)C2(C)C)C[C@@]3(C)O`, for which the outcome with Mus musculus [4] and in the test with Mus musculus [5] was Active.
Turning to `CC1(C)C2=CC[C@@]34C[C@@H](CC[C@H]3[C@@](C)(O)[C@H]2C[C@@H]1O)[C@](C)(O)C4`, the result with Mus musculus [2] was Active.
`C=C1[C@@H]2CC[C@@H]3C[C@@]2(C[C@@H](O)[C@@]2(O)[C@H]1C[C@H](O)C2(C)C)C[C@@]3(C)O`: in the test with Mus musculus [2], the outcome was Active.
Take `CC(=O)O[C@@H]1[C@H]2CC[C@H]3[C@@](C)(O)[C@@H]4C[C@H](O)C(C)(C)[C@@]4(O)[C@H](O)C[C@@]13C[C@@]2(C)O`: the result in the test with Mus musculus [4] and in the test with Mus musculus [5] was Active.
As for `C=C1[C@@H]2CC[C@@H]3C[C@@]2(C[C@@H](O)[C@@]2(O)[C@H]1C[C@@H](O)C2(C)C)C[C@@]3(C)O`, the outcome with Mus musculus [2] was Active.
Still for that read-out and setting: next, `C=C1[C@H]2C[C@H](O)[C@@](C)(CO)[C@]2(O)CC[C@@]23C[C@@H](CC[C@@H]12)[C@](C)(O)C3`: 58.8%.
